Results taken from paper PMC7440915, “Discovery of surrogate agonists for visceral fat Treg cells that modulate metabolic indices in vivo” (eLife, 2020).
Where no end group is shown, it is not given here.

Assays:
endogenous Treg cells = test: Endogenous Fat1562/A^b tetramer^+ Treg cells and scTCR-seq after immunization of wild-type B6 mice; format: in vivo, mouse
Excerpt: We next investigated whether Fat1562 immunization of wild-type B6 mice would elicit expansion of particular Treg clones in VAT, and whether their TCRs would resemble the vTreg53 TCR. 16–20 week-old B6 mice were immunized with Fat1562 using the prime and boost scheme (Figure 4—figure supplement 1A), and the Fat1562-reactive CD4^+ T cells were characterized by staining with the Fat1562/A^b-PE tetramer. […] We then sorted individual Fat1562/A^b tetramer^+ Treg cells from the spleen and VAT of these 3 mice into 96-well plates, and determined the sequences of their TCR-β and TCR-α complementarity-determining region (CDR)3 s. […] Within each mouse, the Spl/LNs and VAT Treg clones had the same CDR3α and CDR3β. […] Therefore, although with some degree of variability, Fat1562 was able to expand an endogenous Treg population that highly resembled the original vTreg53 VAT-Treg clone.
Foxp3^+CD4^+ TCRβ^+ Fat1562/A^b-PE^+ Treg cells from VAT or pooled Spl/LN of 16–20 week-old Foxp3-GFP mice were first sorted in bulk before resorting as individual cells using a MoFlo (Beckman Coulter) into wells of 96-well PCR plates containing the reverse transcriptase reaction mix, and cDNA was prepared as described previously ([Burzyn et al., 2013]). Extreme caution was taken to minimize contamination of wells. […]

HFD-fed B6.CD45.1^+ mice = test: Anti-TNFα and Fat1562 immunization in HFD-fed mice with vTreg53 Treg transfer; format: in vivo, mouse; details: n ≥ 5, anti-TNFα 10 μg/g i.p. twice a week
Excerpt: Figure 7. Immunization with Fat1562 following vTreg53 Treg transfer ameliorates HFD-induced insulin resistance. (A–F) Metabolic indices of mice treated as in Figure 6A (n ≥ 7). (A) Body weight. (B) Insulin tolerance test (ITT). (C) Area over curve for ITT analysis. (D) Glucose tolerance test (GTT). (E) Area under curve for GTT analysis. (F) Plasma insulin levels after 6 hr of fasting. Data shown are representative of at least two independent experiments. (G) Scheme of the anti-TNFα experiment. (H) Number of total Treg cells in VAT (n ≥ 5). (I) Number of CD11c^hi inflammatory macrophages in VAT (n ≥ 5). (J) ITT (n ≥ 5). (K) Area over curve for ITT analysis (n ≥ 5). Data are mean ± SD. Figure 7—figure supplement 1. Absolute blood glucose levels. ITT analysis of mice transferred with vTreg53 TCR-tg Tregs and immunized with adjuvant/Fat1562 or adjuvant alone. Data shown are representative of at least two independent experiments (n ≥ 5). [drawing 7]
12-week-old B6.CD45.1^+ mice were fed with HFD and injected intraperitoneally with 10 μg/g body weight anti-TNFα (XT3.11, BioXCell) or isotype control IgG (HRPN, BioXCell) twice a week for 6 weeks, transferred with 0.4 million Treg cells from pooled Spl/LNs of 6-8wk-old male CD45.2^+ Tg^+ Foxp3-GFP^KI/y mice. […] One week after the IFA/peptides injection, ITT (0.75unit/kg insulin) was performed and the composition of different immunocytes were determined.
For GTT, mice were fasted for 15 hr overnight, weighed, and tested for fasting blood-glucose concentrations. […] Blood-glucose levels were measured before and 20, 40, 60, 90, and 120 min after glucose injection. […] Blood-glucose levels were measured before and 20, 40, 60, 90, and 120 min after insulin injection, and were normalized to the blood-glucose levels before insulin injection. The area under the curve (for GTT) or area over the curve (for ITT) were calculated using GraphPad Prism 7.0.

Sequence: TMYKNPRPMAATG [Fat1562]
- mice with detectable expansion of Fat1562/A^b tetramer^+ Treg population (endogenous Treg cells; out of the 10 mice immunized, Spl/LN and VAT, 16–20 week-old B6): three
- clonality of Fat1562/A^b tetramer^+ Treg population (endogenous Treg cells; three mice, scTCR-seq of CDR3α/β): almost entirely monoclonal
- insulin sensitivity (HFD-fed B6.CD45.1^+ mice; ITT, 0.75unit/kg insulin): slightly improved insulin sensitivity
- number of CD11c^hi pro-inflammatory macrophages in VAT (HFD-fed B6.CD45.1^+ mice; VAT): reduced the number of CD11c^hi pro-inflammatory macrophages
- number of VAT-Treg cells (HFD-fed B6.CD45.1^+ mice; VAT): moderately increased the numbers of VAT-Treg cells
